Results: patent publication US12398140B2, “Substituted pyrrolo [2,3-d]pyrimidines for treating familial dysautonomia” (PTC THERAPEUTICS, INC., priority 2019, dated 2025)

Test system: Elongator complex protein 1 (ELPI, also referred to as IKBKAP)
Assay: IKBKAP-HTRF assay (IKBKAP protein in lysates of FD patient-derived fibroblasts)
Type: cell-based, human
Conditions: FD patient-derived fibroblasts GM04589, 48 hours, 7-point concentration curve
Method: The assay is used for the quantitative determination of Elongator complex protein 1 (ELPI, also referred to as IKBKAP) concentration in cell lysates using the HTRF® (Homogeneous Time-Resolved Fluorescence) technology. IKBKAP is detected in a sandwich HTRF assay by use of an anti-IKAP antibody labeled with a donor and an anti-IKAP antibody labeled with an acceptor.
Cells were thawed and incubated in DMEM-10% FBS for 72 hours. Cells were trypsinized, counted, and re-suspended to a concentration of 50,000 cells/ml in DMEM-10% FBS. A 199 μL aliquot of the cell suspensions were plated at 10,000 cells per well in a 96 well microtiter plate and incubated for 3 to 5 hours. […] Test compounds were serially diluted 3.16-fold in 100% DMSO to generate a 7-point concentration curve. A 1 μL aliquot of 200× compound solution was transferred to cell-containing wells, and cells were incubated for 48 hours in a cell culture incubator (37° C., 5% CO2, 100% relative humidity). Triplicate samples were set up for each compound concentration. After 48 hours, the supernatant was removed from the cells and 50 μL of the 1×LB4 lysis buffer, containing protease inhibitors, was added to the cells and incubated with shaking at room temperature for 1 hour. A 36 μL aliquot of this lysate was subsequently transferred to the 384-well plate containing 4 μL of the antibody solution (1:50 dilution of anti IKAP d2 and anti-IKAP K(9+8) in detection buffer). The 384-well plate was then centrifuged for 1 minute to bring the solutions to the bottom of the plate and incubated overnight at 4° C. Fluorescence for each well of the plate at 665 nm and 620 nm was measured was on the EnVision plate reader (Perkin Elmer). The ΔF for each sample is calculated by:
[formula] wherein Signal is the normalized fluorescence for each sample well and Blank is the average normalized average fluorescence for the Blank control wells.
The maximum fold increase (MFI) in IKBKAP protein abundance for compounds of Formula (I) or a form thereof relative to the vehicle control are provided in Table 1. MFI was calculated by dividing the ΔF value for each sample well by the sample ΔF for the vehicle control wells.
The EC2x for IKBKAP protein expression obtained from the 7-point concentration curve generated for each test compound according to the protocol in Biological Example 1 are also provided in Table 1. The term “EC2x for IKBKAP protein expression” is defined as the concentration of test compound that is effective in producing two times the amount of IKBKAP protein in a FD patient cell compared to the amount produced from the DMSO vehicle control.

SMILES | EC2x for IKBKAP protein expression (concentration producing two times the amount of IKBKAP protein vs DMSO vehicle control) | MFI (maximum fold increase in IKBKAP protein abundance relative to the vehicle control)
C[C@H](N)Cc1[nH]c2nc(Cl)nc(NCc3ccco3)c2c1Br.Cl [Cpd 19, 6-[(2S)-2-aminopropyl]-5-bromo-2-chloro-N-[(furan-2-yl)methyl]-7H-pyrrolo[2,3-d]pyrimidin-4-amine hydrochloride] | **** (between >0.005 μM and ≤0.02 μM is indicated by four stars (****)) | **** (between >3.9 and ≤4.9 is indicated by four stars (****))
C[C@H](N)Cc1cc2c(NCc3ccncc3)nc(Cl)nc2[nH]1 [Cpd 20, 6-[(2S)-2-aminopropyl]-2-chloro-N-[(pyridin-4-yl)methyl]-7H-pyrrolo[2,3-d]pyrimidin-4-amine] | *** (between >0.02 μM and ≤0.5 μM is indicated by three stars (***)) | ***** (>4.9 is indicated by five stars (*****))
CC[C@H](N)Cc1[nH]c2nc(Cl)nc(NCc3ccco3)c2c1Cl.Cl [Cpd 21, 6-[(2S)-2-aminobutyl]-2,5-dichloro-N-[(furan-2-yl)methyl]-7H-pyrrolo[2,3-d]pyrimidin-4-amine hydrochloride] | **** (between >0.005 μM and ≤0.02 μM is indicated by four stars (****)) | **** (between >3.9 and ≤4.9 is indicated by four stars (****))
C[C@H](N)Cc1cc2c(NCc3nccs3)nc(Cl)nc2[nH]1.Cl [Cpd 22, 6-[(2S)-2-aminopropyl]-2-chloro-N-[(1,3-thiazol-2-yl)methyl]-7H-pyrrolo[2,3-d]pyrimidin-4-amine hydrochloride] | **** (between >0.005 μM and ≤0.02 μM is indicated by four stars (****)) | ***** (>4.9 is indicated by five stars (*****))
C[C@H](N)Cc1c(Cl)c2c(NCc3ccco3)nc(Cl)nc2n1C.Cl [Cpd 23, 6-[(2S)-2-aminopropyl]-2,5-dichloro-N-[(furan-2-yl)methyl]-7-methyl-7H-pyrrolo[2,3-d]pyrimidin-4-amine hydrochloride] | **** (between >0.005 μM and ≤0.02 μM is indicated by four stars (****)) | ***** (>4.9 is indicated by five stars (*****))
C[C@H](N)Cc1c(F)c2c(NCc3ccco3)nc(Cl)nc2n1C.Cl [Cpd 24, 6-[(2S)-2-aminopropyl]-2-chloro-5-fluoro-N-[(furan-2-yl)methyl]-7-methyl-7H-pyrrolo[2,3-d]pyrimidin-4-amine hydrochloride] | **** (between >0.005 μM and ≤0.02 μM is indicated by four stars (****)) | ***** (>4.9 is indicated by five stars (*****))
C[C@H](N)Cc1cc2c(NCc3cccs3)nc(Cl)nc2[nH]1.Cl [Cpd 25, 6-[(2S)-2-aminopropyl]-2-chloro-N-[(thiophen-2-yl)methyl]-7H-pyrrolo[2,3-d]pyrimidin-4-amine hydrochloride] | **** (between >0.005 μM and ≤0.02 μM is indicated by four stars (****)) | ***** (>4.9 is indicated by five stars (*****))
CC[C@H](N)Cc1cc2c(NCc3ccco3)nc(Cl)nc2[nH]1 [Cpd 26, 6-[(2S)-2-aminobutyl]-2-chloro-N-[(furan-2-yl)methyl]-7H-pyrrolo[2,3-d]pyrimidin-4-amine] | **** (between >0.005 μM and ≤0.02 μM is indicated by four stars (****)) | **** (between >3.9 and ≤4.9 is indicated by four stars (****))
C[C@H](N)Cc1cc2c(NCc3ncco3)nc(Cl)nc2[nH]1.Cl [Cpd 27, 6-[(2S)-2-aminopropyl]-2-chloro-N-[(1,3-oxazol-2-yl)methyl]-7H-pyrrolo[2,3-d]pyrimidin-4-amine hydrochloride] | *** (between >0.02 μM and ≤0.5 μM is indicated by three stars (***)) | ***** (>4.9 is indicated by five stars (*****))
CCCCc1c(C[C@H](C)N)[nH]c2nc(Cl)nc(NCc3ccco3)c12.Cl [Cpd 28, 6-[(2S)-2-aminopropyl]-5-butyl-2-chloro-N-[(furan-2-yl)methyl]-7H-pyrrolo[2,3-d]pyrimidin-4-amine hydrochloride] | * (An EC2x>1 μM is indicated by one star (*)) | * (An MFI≤1.9 is indicated by one star (*))
CC(C)(C)[C@H](N)Cc1cc2c(NCc3ccco3)nc(Cl)nc2[nH]1.Cl [Cpd 29, 6-[(2R)-2-amino-3,3-dimethylbutyl]-2-chloro-N-[(furan-2-yl)methyl]-7H-pyrrolo[2,3-d]pyrimidin-4-amine hydrochloride] | *** (between >0.02 μM and ≤0.5 μM is indicated by three stars (***)) | **** (between >3.9 and ≤4.9 is indicated by four stars (****))
C[C@H](N)Cc1cc2c(NCc3ccoc3)nc(Cl)nc2[nH]1.Cl [Cpd 30, 6-[(2S)-2-aminopropyl]-2-chloro-N-[(furan-3-yl)methyl]-7H-pyrrolo[2,3-d]pyrimidin-4-amine hydrochloride] | *** (between >0.02 μM and ≤0.5 μM is indicated by three stars (***)) | ***** (>4.9 is indicated by five stars (*****))
C[C@H](N)Cc1cc2c(NCc3ccncc3F)nc(Cl)nc2[nH]1.Cl.Cl [Cpd 31, 6-[(2S)-2-aminopropyl]-2-chloro-N-[(3-fluoropyridin-4-yl)methyl]-7H-pyrrolo[2,3-d]pyrimidin-4-amine dihydrochloride] | **** (between >0.005 μM and ≤0.02 μM is indicated by four stars (****)) | ***** (>4.9 is indicated by five stars (*****))
CC[C@H](C)[C@H](N)Cc1cc2c(NCc3ccco3)nc(Cl)nc2[nH]1.Cl [Cpd 32, 6-[(2R,3S)-2-amino-3-methylpentyl]-2-chloro-N-[(furan-2-yl)methyl]-7H-pyrrolo[2,3-d]pyrimidin-4-amine hydrochloride] | **** (between >0.005 μM and ≤0.02 μM is indicated by four stars (****)) | ***** (>4.9 is indicated by five stars (*****))
Cc1c(C[C@H](C)N)[nH]c2nc(Cl)nc(NCc3ccco3)c12.Cl [Cpd 33, 6-[(2S)-2-aminopropyl]-2-chloro-N-[(furan-2-yl)methyl]-5-methyl-7H-pyrrolo[2,3-d]pyrimidin-4-amine hydrochloride] | ***** (≤0.005 μM is indicated by five stars (*****)) | ***** (>4.9 is indicated by five stars (*****))
Cc1nc(NCc2ccco2)c2c(F)c(C[C@H](C)N)[nH]c2n1.Cl [Cpd 34, 6-[(2S)-2-aminopropyl]-5-fluoro-N-[(furan-2-yl)methyl]-2-methyl-7H-pyrrolo[2,3-d]pyrimidin-4-amine hydrochloride] | *** (between >0.02 μM and ≤0.5 μM is indicated by three stars (***)) | ***** (>4.9 is indicated by five stars (*****))
Cc1c(C[C@H](C)N)n(C)c2nc(Cl)nc(NCc3ccco3)c12.Cl [Cpd 35, 6-[(2S)-2-aminopropyl]-2-chloro-N-[(furan-2-yl)methyl]-5,7-dimethyl-7H-pyrrolo[2,3-d]pyrimidin-4-amine hydrochloride] | **** (between >0.005 μM and ≤0.02 μM is indicated by four stars (****)) | ***** (>4.9 is indicated by five stars (*****))
